Data from US20220409647A1, “COMPOSITIONS, METHODS AND KITS FOR ALTERING ADIPOCYTES” (NuSirt Sciences, Inc., priority 2019, published 2022).

Legend:
intracellular NAD+ = conditions: human and animal data (background); cited from earlier work
UCP1 = UCP1 gene expression by qRT-PCR in hASC cells; assay type: cell-based, human; conditions: 8 μM Naringenin, 30 μM Nicotinamide Riboside or the combination, 6 days
Description: (§1) Human adipose derived stem cells (hASC, LaCell, L.L.C., New Orleans, La.) from two different female overweight (BMI=26) donors were plated at a density of 10000 cells/cm^2 on 96-well plates and 24-well plates in preadipocyte medium (HyClone DMEM/F12 1:1, 10% fetal bovine serum (FBS), 1% Antibiotic/Antimycotic (Penicillin/Streptomycin/amphotericin)) at 37° C. in 5% CO2. […]
(§2) hASC cells were grown in a 96-well plate and treated as indicated. […] Gene expression was assessed by quantitative real-time polymerase chain reaction (qRT-PCR) using StepOnePlus™ PCR system (Thermo Fisher Scientific) and TaqMan Gene expression assays for UCP1 (Invitrogen, assay ID # Hs01084772_m1), Glut 4 (Invitrogen, assay ID # Hs00168966_m1), CPT1b (Invitrogen, assay ID # Hs0046298_s1), PRDM16 (Invitrogen, assay ID # Hs00223161_m1), AdipoQ (Invitrogen, assay ID # HS00605917_m1), ChREBP (Invitrogen, assay ID # HS00975714_m1), ATGL (Invitrogen, assay ID # Hs00982042), and RPL13A (Invitrogen, assay ID #Hs04194366_g1) as endogenous control.
(§3) Results were combined and calculated as fold changes of Control and represented as mean±SEM.

Glut4 = Glut4 gene expression by qRT-PCR in hASC cells; assay type: cell-based, human; conditions: 8 μM Naringenin, 30 μM Nicotinamide Riboside or the combination, 6 days
Description: as §1, §2, §3

CPT1b = CPT1b gene expression by qRT-PCR in hASC cells; assay type: cell-based, human; conditions: 8 μM Naringenin, 30 μM Nicotinamide Riboside or the combination, 6 days
Description: as §1, §2, §3

AdipoQ = AdipoQ gene expression by qRT-PCR in hASC cells; assay type: cell-based, human; conditions: 8 μM Naringenin, 30 μM Nicotinamide Riboside or the combination, 6 days
Description: as §1, §2, §3

ChREBP = ChREBP gene expression by qRT-PCR in hASC cells; assay type: cell-based, human; conditions: 8 μM Naringenin, 30 μM Nicotinamide Riboside or the combination, 6 days
Description: as §1, §2, §3

PRDM16 = PRDM16 gene expression by qRT-PCR in hASC cells; assay type: cell-based, human; conditions: 8 μM Naringenin, 30 μM Nicotinamide Riboside or the combination, 6 days
Description: as §1, §2, §3

p-AMPK = assay: Western blot of p-AMPK in hASC cells; assay type: cell-based, human; conditions: 8 μM Naringenin, 30 μM Nicotinamide Riboside or the combination, 6 days
Description: (§4) Human adipose derived stem cells (hASC, LaCell, L.L.C., New Orleans, La.) from two different female overweight (BMI=26) donors were plated at a density of 10000 cells/cm^2 on 96-well plates and 24-well plates in preadipocyte medium (HyClone DMEM/F12 1:1, 10% fetal bovine serum (FBS), 1% Antibiotic/Antimycotic (Penicillin/Streptomycin/amphotericin)) at 37° C. in 5% CO2. One day after reaching confluence, preadipocytes were induced to differentiate with a differentiation medium consisting of 70% Gibco DMEM (high glucose 4.5 g/L), 30% HyClone DMEM/F12 1:1 (3 g/L glucose), 3% FBS, 1% Antibiotic/Antimycotic, 1 μM Dexamethasone, 33 μM Biotin, 100 nM Insulin, 20 μM Pantothenate, 5 μM Rosiglitazone, 500 μM IBMX. […]
(§5) The Phospho-AMPKα (Thr172)-, AMPK- and Sirt1—antibody was obtained from Cell Signaling (Danvers, Mass.). hASC cells were grown on 24-well plates and treated as indicated. Proteins were extracted by using standard protocols and measured by BCA kit (Thermo Scientific). […] Visualization and chemiluminescent detection was conducted using BioRad ChemiDoc instrumentation and software (Bio-Rad Laboratories, Hercules, Calif.) and band intensity was assessed using Image Lab 4.0 (Bio-Rad Laboratories, Hercules, Calif.), with correction for background. […]

Sirt1 = assay: Western blot of Sirt1 in hASC cells; assay type: cell-based, human; conditions: 8 μM Naringenin, 30 μM Nicotinamide Riboside or the combination, 6 days
Description: as §4, §5

ATGL = ATGL gene expression by qRT-PCR in hASC cells; assay type: cell-based, human; conditions: 8 μM Naringenin, 30 μM Nicotinamide Riboside or the combination, 6 days
Description: as §1, §2
Results were combined and calculated as fold changes of Control and represented as mean±SEM. […]

hASC cells = assay: Fatty acid oxidation (Seahorse) oxygen consumption; assay type: cell-based, human; conditions: Seahorse XF 24; palmitate 200 μM; 8 μM Naringenin or combination with 30 μM NR
Description: as §4, with “IBMX. Preadipocytes were maintained in this differentiation medium for 4 to 5 days and subsequently cultured in maintenance medium (70% Gibco DMEM high glucose, 30% HyClone DMEM/F12 1:1, 3% FBS, 1% Antibiotic/Antimycotic, 1 μM Dexamethasone, 33 μM Biotin, 100 nM Insulin, 20 μM Pantothenate) (=day 0 for experiments).” for “IBMX.”
The palmitate-stimulated oxygen consumption rate was measured with the XF 24 analyzer (Seahorse Bioscience, Billerica, Mass., USA) Cells were seeded and differentiated as described above. […] Data for each sample were normalized to the pre-palmitate injection baseline for that sample and expressed as % change from that baseline. […] All data are expressed as mean±SEM. […]

SMILES | increase in NAD+ resulting from administration (intracellular NAD+) [%] | UCP1 expression, fold changes of Control (UCP1) | Glut4 expression, fold changes of Control (Glut4) | CPT1b expression, fold changes of Control (CPT1b) [fold] | AdipoQ expression, fold changes of Control (AdipoQ) | ChREBP expression, fold changes of Control (ChREBP) | PRDM16 expression, fold changes of Control (PRDM16) | p-AMPK protein expression (p-AMPK) | Sirt1 protein expression (Sirt1) | ATGL expression, fold changes of Control (ATGL) | increase in both basal and palmitate-induced oxygen consumption (fatty acid oxidation) (hASC cells)
NC(=O)c1ccc[n+]([C@@H]2O[C@H](COP(=O)([O-])O)[C@@H](O)[C@H]2O)c1 [NMN, Nicotinamide mononucleotide] | ~40 | – | – | – | – | – | – | – | – | – | –
NC(=O)c1ccc[n+]([C@@H]2O[C@H](CO)[C@@H](O)[C@H]2O)c1 [NR, Nicotinamide Riboside] | ~40 | no independent effect | no independent effect | ~2.4 | no significant effect | two-fold | significantly upregulated | no significant effect | no significant effect | – | –
O=C1C[C@@H](c2ccc(O)cc2)Oc2cc(O)cc(O)c21 [naringenin, Naringenin] | – | ~12 fold | two-fold | ~2.4 | modestly but significantly increased | two-fold | significantly upregulated | significantly increased | significantly increased | two-fold | 30-40%
